{
  "source": "patent US20260215428A1",
  "about": "“WEED CONTROL METHOD” (SYNGENTA CROP PROTECTION AG, priority 2023, published 2026)",
  "test_system": "Lolium multiflorum",
  "assay": "Further glasshouse test versus other ACCase-inhibiting herbicides, Table B2-1",
  "type": "in vivo",
  "settings": "21 days after application",
  "from_the_text": "Further tests were employed to test the efficacy of a compound of Formula I versus other ACCase-inhibiting herbicides. The five main targets were Lolium multiflorum, Eleusine indica, Digitaria insularis, Sorghum halepense and Echinochloa crus-galli. Collectively, the populations contained all the major target-site resistance mutations affecting ACCase herbicides. Two L. multiflorum (LM-NTSR-1 and LM-NTSR-2) and one E. crus-galli (ECG-NTSR-1) populations were characterised exclusively by non-target-site resistance (“NTSR”). The target-site resistant L. multiflorum and E. indication populations were 100% homozygous for different ACCase mutations whilst the D. insularis, S. halepense and E. crus-galli samples contained a mixture of homozygous wild and mutant individuals at different genotypic frequencies. Additional underlying NTSR cannot be ruled out in the populations characterised by target-site resistance.\nAround 50 seeds of each of the 24 weed populations were sown in 12-cm pots containing a mixture of peat and compost in a 1:1 ratio. The pots were watered, fertilised and kept in controlled glasshouse conditions set at 24° C./16 hr day, 18° C. night, 65% relative humidity, and a photon flux density of approximately 250 μmol quanta m^−2 s^−1 for Lolium multiflorum. The E. indica, D. insularis, S. halepense and E. crus-galli plants were kept in a separate glasshouse bay characterised by a 17 H photoperiod of 180 μmol m^−2 s^−1 with temperatures of 25° C. day and 19° C. night and 65% relative humidity. When the plants were at the two to four-leaf stage, they were treated with the various ACCase-inhibiting herbicides at 0, 15, 30, 60, 120 and 240 g ai ha^−1 in a spray cabinet mounted with a single mobile Teejet flat fan nozzle (11002VS) calibrated to deliver 200 L ha^−1 at 200 kPa. The L. multiflorum populations were treated by a compound of Formula Ic, clodinafop-propargyl, pinoxaden, cycloxydim and clethodim and the warm season grass weeds E. indica, D. insularis, S. halepense and E. crus-galli were sprayed with a Compound Ic and the commonly employed haloxyfop-methyl and clethodim. Three replicate pots were used per population. Plants were assessed for visual damage compared to the untreated control 21 days after application (0=0% damage; 100=100% damage).",
  "key": {"[1]": {"settings": "population LM-NTSR-1 (non-target-site resistance), 15 g/ha"}, "[2]": {"settings": "population LM-NTSR-1 (non-target-site resistance), 30 g/ha"}, "[3]": {"settings": "population LM-NTSR-1 (non-target-site resistance), 60 g/ha"}, "[4]": {"settings": "population LM-NTSR-1 (non-target-site resistance), 120 g/ha"}, "[5]": {"settings": "population LM-NTSR-1 (non-target-site resistance), 240 g/ha"}, "[6]": {"settings": "population LM-NTSR-2 (non-target-site resistance), 15 g/ha"}, "[7]": {"settings": "population LM-NTSR-2 (non-target-site resistance), 30 g/ha"}, "[8]": {"settings": "population LM-NTSR-2 (non-target-site resistance), 60 g/ha"}, "[9]": {"settings": "population LM-NTSR-2 (non-target-site resistance), 120 g/ha"}, "[10]": {"settings": "population LM-NTSR-2 (non-target-site resistance), 240 g/ha"}},
  "data": [
    {"smiles": "C#CCOC(=O)[C@@H](C)Oc1ccc(Oc2ncc(Cl)cc2F)cc1", "note": "[Clodinafop-propargyl, clodinafop-propargyl]", "values": [
      {"measurement": "visual damage", "setting": "biotype C2088R, 15 g/ha", "value": 0, "unit": "%"},
      {"measurement": "visual damage", "setting": "biotype C2088R, 30 g/ha", "value": 0, "unit": "%"},
      {"measurement": "visual damage", "setting": "biotype C2088R, 60 g/ha", "value": 0, "unit": "%"},
      {"measurement": "visual damage", "setting": "biotype C2088R, 120 g/ha", "value": 0, "unit": "%"},
      {"measurement": "visual damage", "setting": "biotype C2088R, 240 g/ha", "value": 7, "unit": "%"},
      {"measurement": "visual damage", "setting": "biotype D2078G, 15 g/ha", "value": 0, "unit": "%"},
      {"measurement": "visual damage", "setting": "biotype D2078G, 30 g/ha", "value": 0, "unit": "%"},
      {"measurement": "visual damage", "setting": "biotype D2078G, 60 g/ha", "value": 0, "unit": "%"},
      {"measurement": "visual damage", "setting": "biotype D2078G, 120 g/ha", "value": 0, "unit": "%"},
      {"measurement": "visual damage", "setting": "biotype D2078G, 240 g/ha", "value": 0, "unit": "%"},
      {"measurement": "visual damage", "setting": "biotype I1781L, 15 g/ha", "value": 7, "unit": "%"},
      {"measurement": "visual damage", "setting": "biotype I1781L, 30 g/ha", "value": 7, "unit": "%"},
      {"measurement": "visual damage", "setting": "biotype I1781L, 60 g/ha", "value": 7, "unit": "%"},
      {"measurement": "visual damage", "setting": "biotype I1781L, 120 g/ha", "value": 10, "unit": "%"},
      {"measurement": "visual damage", "setting": "biotype I1781L, 240 g/ha", "value": 33, "unit": "%"},
      {"measurement": "visual damage", "setting": "biotype Sensitive, 15 g/ha", "value": 67, "unit": "%"},
      {"measurement": "visual damage", "setting": "biotype Sensitive, 30 g/ha", "value": 98, "unit": "%"},
      {"measurement": "visual damage", "setting": "biotype Sensitive, 60 g/ha", "value": 100, "unit": "%"},
      {"measurement": "visual damage", "setting": "biotype Sensitive, 120 g/ha", "value": 100, "unit": "%"},
      {"measurement": "visual damage", "setting": "biotype Sensitive, 240 g/ha", "value": 100, "unit": "%"},
      {"measurement": "visual damage", "setting": "biotype W1999S, 15 g/ha", "value": 0, "unit": "%"},
      {"measurement": "visual damage", "setting": "biotype W1999S, 30 g/ha", "value": 0, "unit": "%"},
      {"measurement": "visual damage", "setting": "biotype W1999S, 60 g/ha", "value": 0, "unit": "%"},
      {"measurement": "visual damage", "setting": "biotype W1999S, 120 g/ha", "value": 0, "unit": "%"},
      {"measurement": "visual damage", "setting": "biotype W1999S, 240 g/ha", "value": 0, "unit": "%"},
      {"measurement": "visual damage", "setting": "biotype W2027C, 15 g/ha", "value": 0, "unit": "%"},
      {"measurement": "visual damage", "setting": "biotype W2027C, 30 g/ha", "value": 0, "unit": "%"},
      {"measurement": "visual damage", "setting": "biotype W2027C, 60 g/ha", "value": 0, "unit": "%"},
      {"measurement": "visual damage", "setting": "biotype W2027C, 120 g/ha", "value": 0, "unit": "%"},
      {"measurement": "visual damage", "setting": "biotype W2027C, 240 g/ha", "value": 0, "unit": "%"},
      {"measurement": "visual damage", "setting": "[1]", "value": 0, "unit": "%"},
      {"measurement": "visual damage", "setting": "[2]", "value": 0, "unit": "%"},
      {"measurement": "visual damage", "setting": "[3]", "value": 0, "unit": "%"},
      {"measurement": "visual damage", "setting": "[4]", "value": 27, "unit": "%"},
      {"measurement": "visual damage", "setting": "[5]", "value": 52, "unit": "%"},
      {"measurement": "visual damage", "setting": "[6]", "value": 0, "unit": "%"},
      {"measurement": "visual damage", "setting": "[7]", "value": 0, "unit": "%"},
      {"measurement": "visual damage", "setting": "[8]", "value": 0, "unit": "%"},
      {"measurement": "visual damage", "setting": "[9]", "value": 0, "unit": "%"},
      {"measurement": "visual damage", "setting": "[10]", "value": 0, "unit": "%"}
    ]},
    {"smiles": "CCCC(=NOCC)C1=C(O)CC(C2CCCSC2)CC1=O", "note": "(centres unmarked) [Cycloxydim, cycloxydim]", "values": [
      {"measurement": "visual damage", "setting": "biotype C2088R, 15 g/ha", "value": 0, "unit": "%"},
      {"measurement": "visual damage", "setting": "biotype C2088R, 30 g/ha", "value": 0, "unit": "%"},
      {"measurement": "visual damage", "setting": "biotype C2088R, 60 g/ha", "value": 0, "unit": "%"},
      {"measurement": "visual damage", "setting": "biotype C2088R, 120 g/ha", "value": 0, "unit": "%"},
      {"measurement": "visual damage", "setting": "biotype C2088R, 240 g/ha", "value": 0, "unit": "%"},
      {"measurement": "visual damage", "setting": "biotype D2078G, 15 g/ha", "value": 0, "unit": "%"},
      {"measurement": "visual damage", "setting": "biotype D2078G, 30 g/ha", "value": 0, "unit": "%"},
      {"measurement": "visual damage", "setting": "biotype D2078G, 60 g/ha", "value": 0, "unit": "%"},
      {"measurement": "visual damage", "setting": "biotype D2078G, 120 g/ha", "value": 3, "unit": "%"},
      {"measurement": "visual damage", "setting": "biotype D2078G, 240 g/ha", "value": 7, "unit": "%"},
      {"measurement": "visual damage", "setting": "biotype I1781L, 15 g/ha", "value": 0, "unit": "%"},
      {"measurement": "visual damage", "setting": "biotype I1781L, 30 g/ha", "value": 0, "unit": "%"},
      {"measurement": "visual damage", "setting": "biotype I1781L, 60 g/ha", "value": 7, "unit": "%"},
      {"measurement": "visual damage", "setting": "biotype I1781L, 120 g/ha", "value": 13, "unit": "%"},
      {"measurement": "visual damage", "setting": "biotype I1781L, 240 g/ha", "value": 13, "unit": "%"},
      {"measurement": "visual damage", "setting": "biotype Sensitive, 15 g/ha", "value": 0, "unit": "%"},
      {"measurement": "visual damage", "setting": "biotype Sensitive, 30 g/ha", "value": 0, "unit": "%"},
      {"measurement": "visual damage", "setting": "biotype Sensitive, 60 g/ha", "value": 0, "unit": "%"},
      {"measurement": "visual damage", "setting": "biotype Sensitive, 120 g/ha", "value": 88, "unit": "%"},
      {"measurement": "visual damage", "setting": "biotype Sensitive, 240 g/ha", "value": 100, "unit": "%"},
      {"measurement": "visual damage", "setting": "biotype W1999S, 15 g/ha", "value": 0, "unit": "%"},
      {"measurement": "visual damage", "setting": "biotype W1999S, 30 g/ha", "value": 0, "unit": "%"},
      {"measurement": "visual damage", "setting": "biotype W1999S, 60 g/ha", "value": 0, "unit": "%"},
      {"measurement": "visual damage", "setting": "biotype W1999S, 120 g/ha", "value": 0, "unit": "%"},
      {"measurement": "visual damage", "setting": "biotype W1999S, 240 g/ha", "value": 0, "unit": "%"},
      {"measurement": "visual damage", "setting": "biotype W2027C, 15 g/ha", "value": 0, "unit": "%"},
      {"measurement": "visual damage", "setting": "biotype W2027C, 30 g/ha", "value": 0, "unit": "%"},
      {"measurement": "visual damage", "setting": "biotype W2027C, 60 g/ha", "value": 0, "unit": "%"},
      {"measurement": "visual damage", "setting": "biotype W2027C, 120 g/ha", "value": 0, "unit": "%"},
      {"measurement": "visual damage", "setting": "biotype W2027C, 240 g/ha", "value": 50, "unit": "%"},
      {"measurement": "visual damage", "setting": "[1]", "value": 0, "unit": "%"},
      {"measurement": "visual damage", "setting": "[2]", "value": 0, "unit": "%"},
      {"measurement": "visual damage", "setting": "[3]", "value": 0, "unit": "%"},
      {"measurement": "visual damage", "setting": "[4]", "value": 3, "unit": "%"},
      {"measurement": "visual damage", "setting": "[5]", "value": 60, "unit": "%"},
      {"measurement": "visual damage", "setting": "[6]", "value": 0, "unit": "%"},
      {"measurement": "visual damage", "setting": "[7]", "value": 0, "unit": "%"},
      {"measurement": "visual damage", "setting": "[8]", "value": 0, "unit": "%"},
      {"measurement": "visual damage", "setting": "[9]", "value": 0, "unit": "%"},
      {"measurement": "visual damage", "setting": "[10]", "value": 0, "unit": "%"}
    ]}
  ]
}
